Data from the supplement of paper PMC10331698.
± gives the standard deviation of the averaged measurements.

Experiments:
Assay in all cases: level (log10 ratio to DMSO vehicle control); higher = higher biomarker level / cell amount than vehicle control
Settings in all cases: in DMSO
Perfluorooctanamide = compound: NC(=O)C(F)(F)C(F)(F)C(F)(F)C(F)(F)C(F)(F)C(F)(F)C(F)(F)F [Perfluorooctanamide]
Method: (§1)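 BioMAP Diversity Plus panel of 12 human primary cell co-culture systems (3C, 4H, LPS, SAg, BT, BF4T, BE3C, CASM3C, HDF3CGF, KF3CT, MyoF, Mphg). Compounds were added 1 h before stimulation and left for 24 h (MyoF 48 h; BT 72 h for soluble read-outs or 6 d for IgG). Biomarkers were read by ELISA, cytotoxicity by SRB, PBMC viability and proliferation by Alamar Blue. Each well value was divided by the mean of 8 DMSO control wells on the same plate and log10 transformed; duplicate blinded samples were tested at 4 concentrations.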

[1] = compound: O=C(O)C(F)(F)C(F)(F)C(F)(F)C(F)(F)C(F)(F)C(F)(F)C(F)(F)C(F)(F)C(F)(F)C(F)(F)C(F)(F)C(F)(F)C(F)(F)F [Perfluorotetradecanoic acid]
Method: as §1

1H,1H-Heptafluorobutanol = compound: OCC(F)(F)C(F)(F)C(F)(F)F [1H,1H-Heptafluorobutanol]
Method: as §1

[2] = compound: O=S(=O)(O)C(F)(F)C(F)(F)C(F)(F)C(F)(F)F [Perfluorobutanesulfonic acid]
Method: as §1

Azathioprine = compound: Cn1cnc([N+](=O)[O-])c1Sc1ncnc2[nH]cnc12 [Azathioprine]
Method: as §1

Hexafluoroglutaric acid = compound: O=C(O)C(F)(F)C(F)(F)C(F)(F)C(=O)O [Hexafluoroglutaric acid]
Method: as §1

Test System	level (log10) (Perfluorooctanamide; 6700 nM)	level (log10) (Perfluorooctanamide; 20000 nM)	level (log10) (Perfluorooctanamide; 60000 nM)	level (log10) ([1]; 6700 nM)	level (log10) ([1]; 20000 nM)	level (log10) (1H,1H-Heptafluorobutanol; 6700 nM)	level (log10) (1H,1H-Heptafluorobutanol; 20000 nM)	level (log10) (1H,1H-Heptafluorobutanol; 60000 nM)	level (log10) ([2]; 6700 nM)	level (log10) ([2]; 20000 nM)	level (log10) ([2]; 60000 nM)	level (log10) (Azathioprine; 1400 nM)	level (log10) (Azathioprine; 4200 nM)	level (log10) (Azathioprine; 13000 nM)	level (log10) (Azathioprine; 38000 nM)	level (log10) (Hexafluoroglutaric acid; 6700 nM)	level (log10) (Hexafluoroglutaric acid; 20000 nM)	level (log10) (Hexafluoroglutaric acid; 60000 nM)
LPS:M-CSF	-0.0005 ± 0.022	-0.0205 ± 0.013	-0.067 ± 0.0085	-0.0435 ± 0.0021	-0.0695 ± 0.037	0.011 ± 0.0071	-0.007 ± 0.055	0.006 ± 0.016	0.021 ± 0.016	-0.0035 ± 0.00071	0.01 ± 0.014	-0.011 ± 0.025	-0.024 ± 0.018	-0.0475 ± 0.056	-0.125 ± 0.0042	0.024 ± 0.047	-0.019 ± 0.028	-0.034 ± 0.051
3C:CXCL8/IL-8	-0.013 ± 0.0042	0.002 ± 0.031	0.047 ± 0.021	-0.0045 ± 0.032	0.0485 ± 0.076	0.0005 ± 0.067	-0.0055 ± 0.079	0.0185 ± 0.093	0.0045 ± 0.00071	0.008 ± 0.021	0.071 ± 0.04	0.016 ± 0.054	-0.01 ± 0.011	-0.026 ± 0.0085	-0.0455 ± 0.018	-0.033 ± 0.0057	-0.0185 ± 0.018	0.0015 ± 0.044
3C:SRB	0.007 ± 0.013	0.0095 ± 0.005	-0.015 ± 0.0099	-0.015 ± 0.0028	-0.0165 ± 0.012	-0.0095 ± 0.012	0.001 ± 0.0085	-0.001 ± 0.0071	0.004 ± 0.0099	-0.0095 ± 0.0035	-0.021 ± 0.0042	-0.006 ± 0.0014	-0.016 ± 0.0071	-0.0275 ± 0.005	-0.0955 ± 0.019	-0.004 ± 0.0014	-0.005 ± 0.014	0.0075 ± 0.028
